Test results taken from patent US5750522A, “Pyrrolo[1,2-d] [1,2,4]triazine derivatives” (American Home Products Corporation, priority 1996, dated 1998).
Structures can show the parent of a compound that is named as a salt.

What was measured:
[1] = tested on: patients with mild to moderate Alzheimer's disease; conditions: especially at the higher doses where it is most effective; cited from earlier work
[2] = tested on: patients with mild to moderate Alzheimer's disease; conditions: cited from earlier work
[3] = continuous infusion over 2 weeks used because of it; cited from earlier work
[4] = quaternary ammonium group; background statement; cited from earlier work
[5] = tested on: ml receptors; conditions: background statement; cited from earlier work
[6] = target: ml muscarinic receptor (Homo sapiens, UniProt P11229); assay: biochemical; assay type: binding
[7] = target: T1, M1 acetylcholine receptors (ml receptors in CHO cells) (Homo sapiens, UniProt P11229); assay: cell-based; conditions: at 30x Ki (μM), carb = 100%, 1 h, 37° C., read-out: % PI Hydrolysis ml receptors in CHO cells
T1 sequence (P11229 1-460): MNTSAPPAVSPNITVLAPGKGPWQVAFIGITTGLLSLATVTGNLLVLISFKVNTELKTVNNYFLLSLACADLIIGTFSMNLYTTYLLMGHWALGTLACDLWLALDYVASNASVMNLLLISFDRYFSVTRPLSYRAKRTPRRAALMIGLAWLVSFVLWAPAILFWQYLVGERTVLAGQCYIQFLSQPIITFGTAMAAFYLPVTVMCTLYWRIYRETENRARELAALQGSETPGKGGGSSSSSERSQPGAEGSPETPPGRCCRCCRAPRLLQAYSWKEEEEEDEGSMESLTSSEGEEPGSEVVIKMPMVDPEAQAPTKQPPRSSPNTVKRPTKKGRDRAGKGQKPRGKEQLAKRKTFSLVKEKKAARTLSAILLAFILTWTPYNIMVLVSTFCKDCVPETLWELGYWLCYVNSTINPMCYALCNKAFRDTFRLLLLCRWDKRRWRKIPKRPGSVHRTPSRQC

For Nc1c2c(nc3ccccc13)CCCC2 [tacrine], the adverse side effects [1] is listed as “adverse side effects especially at the higher doses where it is most effective” and the improvement in memory [2] is listed as “improvement in memory can be shown in patients with mild to moderate Alzheimer's disease”.

For COC(=O)C1=CCCN(C)C1 [arecoline], the half-life [3] is given as “short half-life” and the improvement in memory [2] is given as “memory improvement in patients with mild to moderate Alzheimer's disease”.

In the case of C[N+](C)(C)CCOC(N)=O [carbachol], the “ability to enter the CNS” value [4] is listed as “not able to enter the CNS” and the “activation of ml receptors” value [5] is listed as “able to fully activate ml receptors”.

Work on Cc1nnc(NCCCN2CC3CCC(CC3)C2)n2cccc12 [Example 2, [4-(3-Azabicyclo[3.2.2.]-3-propyl]-(1-methylpyrrolo[1,2-d][1,2,4]triazin-4-yl)aminedihydrochloride] yielded a Ki [6] of 1.39 µM.

For Cc1nnc(NC2CN3CCC2CC3)n2cccc12 (stereo not shown) [Example 4, (1-Azabicyclo[2.2.2]oct-3-yl)-1-methylpyrrolo[1,2-d][1,2,4]triazin-4-ylamine dihydrochloride], the IC50 [6] was 20.2 µM.

In the case of C[C@@H]1O[C@H](C[N+](C)(C)C)C[C@H]1O [muscarine], the “ability to enter the CNS” value [4] is listed as “not able to enter the CNS” and the “activation of ml receptors” value [5] is listed as “able to fully activate ml receptors”.

Compound Cc1nnc(NCCCCN2CC3CCC(CC3)C2)n2cccc12 [Example 1, [4-(3-Azabicyclo[3.2.2]-3-yl)-butyl]-(1-methylpyrrolo[1,2-d][1,2,4]triazin-4-yl)amine dihydrochloride] has a Ki [6] of 0.31 µM.

In the case of Cc1nnc(NCCN2CC3CCC(CC3)C2)n2cccc12 [Example 3, [4-(3-Azabicyclo[3.2.2]non-3-yl)ethyl]-(1-methylpyrrolo[1,2-d][1,2,4]triazin-4-yl)amine dihydrochloride], the Ki [6] is reported as 4.45 µM and the Emax [7] is reported as 24%.
